Source: ChEMBL document CHEMBL1201862, “PubChem BioAssay data set” (2004)
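Dose response: 5 concentrations. Exposure: 48 h. Format: 96-well plates. Endpoint: linear interpolation; highest concentration if not reached. GI50 marks 50% less growth.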 Active and inactive are the calls of the source. Rule as the data show it: active = GI50 up to about 1.1 µM and inactive = higher.

Columns and labels:
Test in all cases: NCI-60 cell line screen, 48 h
SN12C = test system: SN12C
COLO 205 = test system: COLO 205
ACHN = test system: ACHN
XF498 = test system: XF498
CAKI-1 = test system: CAKI-1
LOX IMVI = test system: LOX IMVI
SK-MEL-5 = test system: SK-MEL-5
SK-OV-3 = test system: SK-OV-3
RPMI-8226 = test system: RPMI-8226
HCT-15 = test system: HCT-15
Malme-3M = test system: Malme-3M
A498 = test system: A498
HCT-116 = test system: HCT-116
HOP-62 = test system: HOP-62
IGROV-1 = test system: IGROV-1
UACC-257 = test system: UACC-257
SR = test system: SR
MDA-N = test system: MDA-N
DU-145 = test system: DU-145
Hs-578T = test system: Hs-578T

SMILES | GI50 (SN12C) | GI50 (COLO 205) | GI50 (ACHN) | GI50 (XF498) | GI50 (CAKI-1) | GI50 (LOX IMVI) | GI50 (SK-MEL-5) | GI50 (SK-OV-3) | GI50 (RPMI-8226) | GI50 (HCT-15) | GI50 (Malme-3M) | GI50 (A498) | GI50 (HCT-116) | GI50 (HOP-62) | GI50 (IGROV-1) | GI50 (UACC-257) | GI50 (SR) | GI50 (MDA-N) | GI50 (DU-145) | GI50 (Hs-578T)
COC(=O)C(C(=O)C(=O)Nc1nc2ccc(OC)cc2s1)c1cnc2ccccc2n1 (stereo unspecified) | > 100 µM (inactive) | > 100 µM (inactive) | > 100 µM (inactive) | > 100 µM (inactive) | > 100 µM (inactive) | > 100 µM (inactive) | > 100 µM (inactive) | > 100 µM (inactive) | > 100 µM (inactive) | > 100 µM | > 100 µM (inactive) | > 100 µM (inactive) | > 100 µM (inactive) | > 100 µM (inactive) | > 100 µM (inactive) | > 100 µM (inactive) |  |  |  | 
CCN1C(=O)C/C(=C\C(C)=O)Nc2ccccc21 | 0.166 µM (active) | > 100 µM (inactive) |  | > 100 µM (inactive) | > 100 µM (inactive) | > 100 µM (inactive) | 10 µM (inactive) | > 100 µM (inactive) |  |  | > 100 µM (inactive) |  | > 100 µM (inactive) | > 100 µM (inactive) | > 100 µM (inactive) |  | > 100 µM (inactive) |  |  | 
Oc1ccccc1/C=N/c1ccccc1/N=C/c1ccccc1O | > 100 µM (inactive) | > 100 µM (inactive) | 30.2 µM (inactive) | 47.6 µM (inactive) |  | > 100 µM (inactive) | 86.1 µM (inactive) | > 100 µM (inactive) | 62.7 µM (inactive) | 79.4 µM | > 100 µM (inactive) |  | > 100 µM (inactive) | > 100 µM (inactive) | > 100 µM (inactive) | 38.7 µM (inactive) | 19.5 µM (inactive) |  |  | 
CN(C)/N=N/c1[nH]cnc1C(N)=O [DACARBAZINE] | 78.7 µM (inactive) | 78.9 µM (inactive) |  | 21.8 µM (inactive) | 19 µM (inactive) | 11.7 µM (inactive) | 74.6 µM (inactive) | 20.6 µM (inactive) | 19.1 µM (inactive) | 94.6 µM | 41.5 µM (inactive) |  | 38.5 µM (inactive) | 24.5 µM (inactive) | 68.5 µM (inactive) | 49.8 µM (inactive) | 18.9 µM (inactive) | > 86.1 µM (inactive) | 71.9 µM (inactive) | 63 µM (inactive)
CN(C)c1snc2c1c(=O)n(C)c(=O)n2C | > 100 µM (inactive) | > 100 µM (inactive) | > 100 µM (inactive) | > 100 µM (inactive) | > 100 µM (inactive) | > 100 µM (inactive) | > 100 µM (inactive) | > 100 µM (inactive) | > 100 µM (inactive) | > 100 µM | > 100 µM (inactive) | > 100 µM (inactive) | > 100 µM (inactive) | > 100 µM (inactive) | > 100 µM (inactive) | > 100 µM (inactive) |  |  |  | 
CN1CCN(CCSC2Cc3cc(Cl)ccc3Sc3ccccc32)CC1 (stereo unspecified) | 9.12 µM (inactive) | 1.74 µM (inactive) | 8.36 µM (inactive) | 3.03 µM (inactive) | 6.67 µM (inactive) | 2.28 µM (inactive) | 3.26 µM (inactive) | 16.7 µM (inactive) | 2.26 µM (inactive) | 4.59 µM | 2.45 µM (inactive) | 6.41 µM (inactive) | 5.69 µM (inactive) | 12.7 µM (inactive) | 10.3 µM (inactive) | 1.9 µM (inactive) | 5.07 µM (inactive) |  |  | 
CCOC(=O)N1c2c(ccn2C)-c2ccn(C)c2N1C(=O)OCC | 15.8 µM (inactive) | 22.7 µM (inactive) | 15.8 µM (inactive) | 17 µM (inactive) | 18.3 µM (inactive) | 12.9 µM (inactive) | > 100 µM (inactive) | 30.6 µM (inactive) | 20.9 µM (inactive) | 12.9 µM | 19 µM (inactive) | 44.1 µM (inactive) | 14.8 µM (inactive) | > 100 µM (inactive) | 24.9 µM (inactive) | > 10 µM (inactive) | 15.8 µM (inactive) |  |  | 
